According to article PMC6934184, “Selective DNA-PKcs inhibition extends the therapeutic index of localized radiotherapy and chemotherapy” (The Journal of Clinical Investigation, 2019):

Molecular target: T1, TEK (TIE2) Y1108F (Homo sapiens, UniProt Q02763, Y1108F)
T1 construct: purchased Thermo Fisher Scientific (Life Technologies) SelectScreen
Assay: SelectScreen LanthaScreen
Type: binding
Details: read-out: % displacement
Summary of the method: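 NU5455 was profiled across the SelectScreen Broad panel of kinase activity and binding assays. Z'LYTE reactions such as CSF1R ran at apparent Km ATP, while the Adapta CAMK1 assay used ATP listed as 10. Values are given as percent.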

T1 sequence (Q02763 23-1124 Y1108F): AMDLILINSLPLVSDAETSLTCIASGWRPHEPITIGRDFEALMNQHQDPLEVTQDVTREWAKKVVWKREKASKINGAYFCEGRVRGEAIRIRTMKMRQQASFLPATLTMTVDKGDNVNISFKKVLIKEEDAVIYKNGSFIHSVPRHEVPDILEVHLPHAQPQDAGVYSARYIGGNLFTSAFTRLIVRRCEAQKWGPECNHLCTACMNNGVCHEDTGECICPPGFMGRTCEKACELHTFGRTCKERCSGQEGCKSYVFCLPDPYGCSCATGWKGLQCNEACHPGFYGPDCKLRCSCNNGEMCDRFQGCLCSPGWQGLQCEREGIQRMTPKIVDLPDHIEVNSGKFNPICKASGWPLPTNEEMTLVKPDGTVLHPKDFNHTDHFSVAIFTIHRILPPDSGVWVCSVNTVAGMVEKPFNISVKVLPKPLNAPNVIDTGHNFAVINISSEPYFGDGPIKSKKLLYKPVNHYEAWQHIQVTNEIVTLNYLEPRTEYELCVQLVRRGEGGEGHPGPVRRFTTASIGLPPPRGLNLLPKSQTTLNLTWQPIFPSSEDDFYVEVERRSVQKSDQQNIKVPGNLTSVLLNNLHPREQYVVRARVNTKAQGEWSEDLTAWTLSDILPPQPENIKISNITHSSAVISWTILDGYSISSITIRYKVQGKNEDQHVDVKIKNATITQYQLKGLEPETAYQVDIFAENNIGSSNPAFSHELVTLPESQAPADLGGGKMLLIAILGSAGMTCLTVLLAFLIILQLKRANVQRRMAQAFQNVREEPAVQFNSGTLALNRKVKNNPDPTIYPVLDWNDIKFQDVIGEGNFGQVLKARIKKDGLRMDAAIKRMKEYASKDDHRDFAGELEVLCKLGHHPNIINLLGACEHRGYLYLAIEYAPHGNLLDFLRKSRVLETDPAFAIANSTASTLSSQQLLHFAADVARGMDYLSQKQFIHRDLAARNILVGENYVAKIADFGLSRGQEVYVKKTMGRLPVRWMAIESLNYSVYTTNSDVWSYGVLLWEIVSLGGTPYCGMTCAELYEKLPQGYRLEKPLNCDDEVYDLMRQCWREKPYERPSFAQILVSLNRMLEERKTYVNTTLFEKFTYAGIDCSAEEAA

Compound: CN(C(=O)CN1CCOCC1)c1ccc2sc3c(-c4cccc5c(=O)cc(N6CC7CCC(C6)O7)oc45)cccc3c2c1 [NU5455]
- inhibition at 1 µM: -0.3%
